The assay has as its target Transcription factor Jun (Homo sapiens, UniProt P05412). As to the kind of experiment: Inhibition of c-Jun phosphorylation in HepG2 cells.

Chain of Transcription factor Jun (P05412 whole entry): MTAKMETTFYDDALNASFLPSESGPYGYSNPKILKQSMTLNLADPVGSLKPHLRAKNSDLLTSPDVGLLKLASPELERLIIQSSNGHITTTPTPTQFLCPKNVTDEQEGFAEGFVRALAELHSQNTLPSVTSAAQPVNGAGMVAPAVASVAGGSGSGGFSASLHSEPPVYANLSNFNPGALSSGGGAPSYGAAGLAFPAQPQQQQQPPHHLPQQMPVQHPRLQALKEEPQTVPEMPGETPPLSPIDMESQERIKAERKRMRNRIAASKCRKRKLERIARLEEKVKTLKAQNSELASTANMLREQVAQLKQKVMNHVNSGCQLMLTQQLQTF

Consider `CCOc1nc(C(=O)NCc2ccc(S(C)(=O)=O)cc2)cc(N)c1C#N` [4-amino-5-cyano-6-ethoxy-N-[(4-methanesulfonylphenyl)methyl]pyridine-2-carboxamide], for which the EC50 – broadly, the concentration at which the effect is half-maximal – is 318 nM.

Values taken from BindingDB's records for doi:10.1016/j.bmcl.2006.10.013 (Abbott Laboratories, 2007).
